{"source": "patent US8883792B2", "about": "“Substituted isoquinoline derivative” (D. Western Therapeutics Institute, Inc., priority 2010, dated 2014)", "note": "Counter-ions that a name gives are not always drawn.", "data": [{"tested_on": "rabbits (New Zealand White)", "assay": "Ocular hypotensive effect in rabbits", "type": "in vivo, rabbit", "conditions": "male New Zealand White rabbits, 0.04 mL eye drop, concentration of 1% (w/v) or lower, maximum ocular hypotensive rate vs vehicle-treated contralateral eye", "method": "The compound of the present invention was administered to rabbits (New Zealand White, sex: male, 3 to 6 per group) and evaluated for its ocular hypotensive effect.\nEach test compound was dissolved in a vehicle 1 (1.04 g of sodium dihydrogen phosphate dihydrate and 0.5 g of sodium chloride dissolved in purified water and then adjusted to pH 7.0 with sodium hydroxide to make the total amount to 100 mL) or a vehicle 2 (2% (w/v) aqueous boric acid solution) to prepare a test compound solution with a predetermined concentration.\nThe intraocular pressures of the rabbits were measured using Tiolat TonoVet handheld tonometer immediately before administration of test compound. The test compound solution and the vehicle were dropped at a volume of 0.04 mL to one eye and the contralateral eye, respectively, and the intraocular pressures were measured over time in the same way as above. The rate of the intraocular pressure of the eye receiving the test compound solution to that of the eye receiving the vehicle was calculated as an ocular hypotensive rate.", "values": [{"smiles": "C[C@H](CC(N)CCc1ccccc1)NS(=O)(=O)c1ccc2cnccc2c1", "note": "(single isomer, unassigned; diastereomer a) [Example 118]", "Ocular hypotensive activity": "++ (maximum ocular hypotensive rate of 15% or more)"}, {"smiles": "C[C@H](CC(N)CCc1ccccc1)NS(=O)(=O)c1ccc2cnccc2c1", "note": "(single isomer, unassigned; diastereomer b) [Example 119]", "Ocular hypotensive activity": "++ (maximum ocular hypotensive rate of 15% or more)"}, {"smiles": "C[C@H](CNCc1ccccc1)NS(=O)(=O)c1ccc2cnccc2c1", "note": "[Example 1, (R)—N-{1-(benzylamino)propan-2-yl}isoquinoline-6-sulfonamide dihydrochloride]", "Ocular hypotensive activity": "++ (maximum ocular hypotensive rate of 15% or more)"}, {"smiles": "CNC[C@@H](C)NS(=O)(=O)c1ccc2cnccc2c1", "note": "[Example 2, (R)—N-{1-(methylamino)propan-2-yl}isoquinoline-6-sulfonamide dihydrochloride]", "Ocular hypotensive activity": "++ (maximum ocular hypotensive rate of 15% or more)"}, {"smiles": "CCNC[C@@H](C)NS(=O)(=O)c1ccc2cnccc2c1", "note": "[Example 3, (R)—N-{1-(ethylamino)propan-2-yl}isoquinoline-6-sulfonamide dihydrochloride]", "Ocular hypotensive activity": "++ (maximum ocular hypotensive rate of 15% or more)"}, {"smiles": "CCCNC[C@@H](C)NS(=O)(=O)c1ccc2cnccc2c1", "note": "[Example 4, (R)—N-{1-(propylamino)propan-2-yl}isoquinoline-6-sulfonamide dihydrochloride]", "Ocular hypotensive activity": "++ (maximum ocular hypotensive rate of 15% or more)"}, {"smiles": "CCCCNC[C@H](C)NS(=O)(=O)c1ccc2cnccc2c1", "note": "[Example 6, (S)—N-{1-(butylamino)propan-2-yl}isoquinoline-6-sulfonamide dihydrochloride]", "Ocular hypotensive activity": "++ (maximum ocular hypotensive rate of 15% or more)"}, {"smiles": "CC=CCNC[C@@H](C)NS(=O)(=O)c1ccc2cnccc2c1", "note": "[Example 7, (R)—N-{1-(but-2-enylamino)propan-2-yl}isoquinoline-6-sulfonamide dihydrochloride]", "Ocular hypotensive activity": "++ (maximum ocular hypotensive rate of 15% or more)"}, {"smiles": "CC=CCNC[C@H](C)NS(=O)(=O)c1ccc2cnccc2c1", "note": "[Example 8, (S)—N-{1-(but-2-enylamino)propan-2-yl}isoquinoline-6-sulfonamide dihydrochloride]", "Ocular hypotensive activity": "++ (maximum ocular hypotensive rate of 15% or more)"}, {"smiles": "C=CCNC[C@@H](C)NS(=O)(=O)c1ccc2cnccc2c1", "note": "[Example 9, (R)—N-{1-(allylamino)propan-2-yl}isoquinoline-6-sulfonamide dihydrochloride]", "Ocular hypotensive activity": "++ (maximum ocular hypotensive rate of 15% or more)"}, {"smiles": "C=CCNCCNS(=O)(=O)c1ccc2cnccc2c1", "note": "[Example 10, N-{2-(allylamino)ethyl}isoquinoline-6-sulfonamide dihydrochloride]", "Ocular hypotensive activity": "++ (maximum ocular hypotensive rate of 15% or more)"}, {"smiles": "CCCCN[C@H](C)CNS(=O)(=O)c1ccc2cnccc2c1", "note": "[Example 11, (R)—N-{2-(butylamino)propyl}isoquinoline-6-sulfonamide dihydrochloride]", "Ocular hypotensive activity": "+ (maximum ocular hypotensive rate of 5% or more and less than 15%)"}, {"smiles": "CCCNCC[C@@H](C)NS(=O)(=O)c1ccc2cnccc2c1", "note": "[Example 12, (R)—N-{4-(propylamino)butan-2-yl}isoquinoline-6-sulfonamide dihydrochloride]", "Ocular hypotensive activity": "++ (maximum ocular hypotensive rate of 15% or more)"}, {"smiles": "C[C@H](CN1CCNCC1)NS(=O)(=O)c1ccc2cnccc2c1", "note": "[Example 13, (R)—N-{1-(piperazin-1-yl)propan-2-yl}isoquinoline-6-sulfonamide trihydrochloride]", "Ocular hypotensive activity": "+ (maximum ocular hypotensive rate of 5% or more and less than 15%)"}, {"smiles": "CC(C)CNC[C@@H](C)NS(=O)(=O)c1ccc2cnccc2c1", "note": "[Example 14, (R)—N-{1-(isobutylamino)propan-2-yl}isoquinoline-6-sulfonamide dihydrochloride]", "Ocular hypotensive activity": "++ (maximum ocular hypotensive rate of 15% or more)"}, {"smiles": "C[C@H](CNC1CC1)NS(=O)(=O)c1ccc2cnccc2c1", "note": "[Example 15, (R)—N-{1-(cyclopropylamino)propan-2-yl}isoquinoline-6-sulfonamide dihydrochloride]", "Ocular hypotensive activity": "++ (maximum ocular hypotensive rate of 15% or more)"}, {"smiles": "C[C@H](CNCC1CCC1)NS(=O)(=O)c1ccc2cnccc2c1.Cl", "note": "[Example 16, (R)—N-{1-(cyclobutylmethylamino)propan-2-yl}isoquinoline-6-sulfonamide hydrochloride]", "Ocular hypotensive activity": "++ (maximum ocular hypotensive rate of 15% or more)"}, {"smiles": "C[C@H](CNCC(C)(C)C)NS(=O)(=O)c1ccc2cnccc2c1", "note": "[Example 17, (R)—N-{1-(neopentylamino)propan-2-yl}isoquinoline-6-sulfonamide dihydrochloride]", "Ocular hypotensive activity": "++ (maximum ocular hypotensive rate of 15% or more)"}, {"smiles": "C[C@H](CNCC1CC1)NS(=O)(=O)c1ccc2cnccc2c1", "note": "[Example 18, (R)—N-{1-(cyclopropylmethylamino)propan-2-yl}isoquinoline-6-sulfonamide dihydrochloride]", "Ocular hypotensive activity": "++ (maximum ocular hypotensive rate of 15% or more)"}, {"smiles": "CCCCCNC[C@@H](C)NS(=O)(=O)c1ccc2cnccc2c1", "note": "[Example 19, (R)—N-{1-(pentylamino)propan-2-yl}isoquinoline-6-sulfonamide dihydrochloride]", "Ocular hypotensive activity": "++ (maximum ocular hypotensive rate of 15% or more)"}, {"smiles": "CCC(C)CNC[C@@H](C)NS(=O)(=O)c1ccc2cnccc2c1", "note": "(stereo partly drawn) [Example 20, N-(2R)-{1-(methylbutylamino)propan-2-yl}isoquinoline-6-sulfonamide hydrochloride]", "Ocular hypotensive activity": "++ (maximum ocular hypotensive rate of 15% or more)"}, {"smiles": "CC(C)CCNC[C@@H](C)NS(=O)(=O)c1ccc2cnccc2c1.Cl", "note": "[Example 21, (R)—N-{1-(isopentylamino)propan-2-yl}isoquinoline-6-sulfonamide hydrochloride]", "Ocular hypotensive activity": "+ (maximum ocular hypotensive rate of 5% or more and less than 15%)"}, {"smiles": "CCCCCCNC[C@@H](C)NS(=O)(=O)c1ccc2cnccc2c1", "note": "[Example 22, (R)—N-{1-(hexylamino)propan-2-yl}isoquinoline-6-sulfonamide dihydrochloride]", "Ocular hypotensive activity": "++ (maximum ocular hypotensive rate of 15% or more)"}, {"smiles": "C[C@@H](CNCCc1ccccc1)NS(=O)(=O)c1ccc2cnccc2c1", "note": "[Example 24, (S)—N-{1-(phenethylamino)propan-2-yl}isoquinoline-6-sulfonamide dihydrochloride]", "Ocular hypotensive activity": "++ (maximum ocular hypotensive rate of 15% or more)"}, {"smiles": "C[C@H](CNC[C@@H](C)c1ccccc1)NS(=O)(=O)c1ccc2cnccc2c1", "note": "[Example 26, N—[(R)-1-{(S)-2-phenylpropylamino}propan-2-yl]isoquinoline-6-sulfonamide dihydrochloride]", "Ocular hypotensive activity": "++ (maximum ocular hypotensive rate of 15% or more)"}, {"smiles": "CC(C)[C@H](CNCCc1ccccc1)NS(=O)(=O)c1ccc2cnccc2c1", "note": "[Example 27, (R)—N-{3-methyl-1-(phenethylamino)butan-2-yl}isoquinoline-6-sulfonamide dihydrochloride]", "Ocular hypotensive activity": "++ (maximum ocular hypotensive rate of 15% or more)"}, {"smiles": "COc1ccccc1CCNC[C@@H](C)NS(=O)(=O)c1ccc2cnccc2c1", "note": "[Example 28, (R)—N-{1-(2-methoxyphenethylamino)propan-2-yl}isoquinoline-6-sulfonamide dihydrochloride]", "Ocular hypotensive activity": "++ (maximum ocular hypotensive rate of 15% or more)"}, {"smiles": "COc1cccc(CCNC[C@@H](C)NS(=O)(=O)c2ccc3cnccc3c2)c1", "note": "[Example 29, (R)—N-{1-(3-methoxyphenethylamino)propan-2-yl}isoquinoline-6-sulfonamide dihydrochloride]", "Ocular hypotensive activity": "++ (maximum ocular hypotensive rate of 15% or more)"}, {"smiles": "COc1ccc(CCNC[C@@H](C)NS(=O)(=O)c2ccc3cnccc3c2)cc1", "note": "[Example 30, (R)—N-{1-(4-methoxyphenethylamino)propan-2-yl}isoquinoline-6-sulfonamide dihydrochloride]", "Ocular hypotensive activity": "++ (maximum ocular hypotensive rate of 15% or more)"}, {"smiles": "C[C@H](CNCCc1ccccc1F)NS(=O)(=O)c1ccc2cnccc2c1", "note": "[Example 31, (R)—N-{1-(2-fluorophenethylamino)propan-2-yl}isoquinoline-6-sulfonamide dihydrochloride]", "Ocular hypotensive activity": "++ (maximum ocular hypotensive rate of 15% or more)"}, {"smiles": "Cl.O=S(=O)(NCCNCCc1ccccc1)c1ccc2cnccc2c1", "note": "[Example 32, N-{2-(phenethylamino)ethyl}isoquinoline-6-sulfonamide hydrochloride]", "Ocular hypotensive activity": "++ (maximum ocular hypotensive rate of 15% or more)"}, {"smiles": "C[C@H](CNCCC1CCCCC1)NS(=O)(=O)c1ccc2cnccc2c1", "note": "[Example 33, (R)—N-{1-(2-cyclohexylethylamino)propan-2-yl}isoquinoline-6-sulfonamide dihydrochloride]", "Ocular hypotensive activity": "++ (maximum ocular hypotensive rate of 15% or more)"}, {"smiles": "C[C@H](CNCCCc1ccccc1)NS(=O)(=O)c1ccc2cnccc2c1", "note": "[Example 34, (R)—N-{1-(3-phenylpropylamino)propan-2-yl}isoquinoline-6-sulfonamide dihydrochloride]", "Ocular hypotensive activity": "++ (maximum ocular hypotensive rate of 15% or more)"}, {"smiles": "C[C@@H](CNCCc1c[nH]c2ccccc12)NS(=O)(=O)c1ccc2cnccc2c1.Cl", "note": "[Example 37, (S)—N-[1-{2-(1H-indol-3-yl)ethylamino}propan-2-yl]isoquinoline-6-sulfonamide hydrochloride]", "Ocular hypotensive activity": "++ (maximum ocular hypotensive rate of 15% or more)"}]}]}
